Results from paper PMC4411097, “Pachymic Acid Inhibits Growth and Induces Apoptosis of Pancreatic Cancer In Vitro and In Vivo by Targeting ER Stress” (PLoS ONE, 2015).

What was measured:
[1] = system: PARP cleavage (c-PARP) in MIA PaCa-2 cells; assay: Western blot for PARP cleavage (c-PARP); type: cell-based, human; settings: MIA PaCa-2, PA 0–30 μM, 24 h
Method: (§1) Apoptosis induction in PA-treated cells was assessed by quantitation of cytoplasmic histone-associated DNA fragments and western blotting for PARP cleavage (c-PARP). The Cell Death Detection ELISA^PLUS Kit (Roche, Indianapolis, IN) was used to detect the amount of cytoplasmic histone-associated DNA fragments according to the manufacturer’s instructions and expressed relative to vehicle-treated cells (set equal to 1).
(§2) PANC-1, MIA PaCa-2 cells were treated with PA (0–30 μM) for 10 min, 30 min or 24 h, respectively. Whole protein extracts isolated from cells and tumor tissues were prepared and western blot analysis with anti-cleaved PARP, anti-XBP-1s, anti-ATF6, anti-ATF4, anti-Hsp70, anti-CHOP, anti-phospho-eIF2α or anti-eIF2α antibodies were performed as previously described. Western blots were quantified with HP-Scanjet 550c and analyzed by UN-SCAN-IT software (Silk Scientific, Orem, UT). Three independent experiments were done for all the immunoblot studies and quantitative data composed of all the experiments with statistical analysis were added below the representative blot image.

[2] = system: PARP cleavage (c-PARP) in PANC-1 cells; assay: Western blot for PARP cleavage (c-PARP); type: cell-based, human; settings: PANC-1, PA 0–30 μM, 24 h
Method: as §1, §2

[3] = system: MIA PaCa-2 tumor xenograft; assay: Human pancreatic tumor xenograft experiment; type: in vivo, female nude mice; settings: day 34; for Average tumor volume: control approximately 448 mm^3
Method: Animal experiments were conducted strictly in accordance with the protocol approved by the Animal Research Committee at the Methodist Hospital (protocol no. 2011–07). MIA PaCa-2 cells (3x10^6) in 100 μl DPBS were implanted subcutaneously in the right flank on the ventral side of the 6 weeks old female nude mice (Harlan, Indianapolis, IN, USA). When tumors became palpable after 1–3 weeks (40–60 mm^3), animals were randomly assigned into three groups (n = 15) and received intraperitoneal (i.p.) injection 3 times per week of vehicle or PA (25 mg kg^-1 and 50 mg kg^-1) of body weight for additional 5 weeks. Tumor sizes were measured 3 times per week with microcalipers and the tumor volumes were calculated with the standard formula: tumor volume (mm^3) = L x W^2 x 0.5, where L is the length and W is the width of the tumor. At the end of the experiment (Day 35), the mice were euthanized by CO2 inhalation. The tumors were harvested and fixed in 10% neutral-buffered formalin at 4°C for 24 h or snap frozen and stored separately in liquid nitrogen.

[4] = system: MIA PaCa-2 tumor xenograft; assay: Apoptosis measurement in tumor xenograft (apoptotic bodies, H&E); type: in vivo, female nude mice
Method: All formalin-fixed tumors were embedded in paraffin within 48 h and five-micrometer sections were stained with hematoxylin and eosin (H&E). The slides were viewed under a Leica microscope (Leica Instruments, Melville, NY) and apoptosis in the viable tumor cell area was quantified by counting apoptotic bodies in four 20 x fields of view for n = 6–12 tumors per group by 2 independent observers.

[5] = system: ATF4 and CHOP in MIA PaCa-2 tumor tissues; assay: Western blot of tumor tissues; type: in vivo, female nude mice; settings: 25 mg kg^-1, vs controls
Method: as §2

MIA PaCa-2 = system: MIA PaCa-2; design: method as in PMID 23588713; settings: MIA PaCa-2, 24 h; read-out: IC50-24 h, inhibition of proliferation; cited from earlier work
[6] = 25 mg kg^-1 i.p. 3 times per week
[7] = 50 mg kg^-1 i.p. 3 times per week

For C=C(CC[C@@H](C(=O)O)[C@H]1[C@H](O)C[C@@]2(C)C3=C(CC[C@]12C)[C@@]1(C)CC[C@H](OC(C)=O)C(C)(C)[C@@H]1CC3)C(C)C [PA, Pachymic acid], which “Increase in expression of PARP cleavage vs vehicle-treated control” value [1] is on record?
The value was ~4 fold.

What about the “Increase in expression of PARP cleavage vs vehicle-treated control” value [2] of the same compound?
The value was “approximately 3 fold”.

What about the “Inhibition of tumor volume vs control” value [3, 6] of the same compound?
Its value is ~75%.

And the Average tumor volume [3, 6]?
The Average tumor volume was “about 112 mm^3”.

And the “Inhibition of tumor volume vs control” value [3, 7]?
Its value is ~80%.

What about the Average tumor volume [3, 7] of the same compound?
Its Average tumor volume is ~89 mm^3.

What about the “Increase of apoptotic bodies in tumors vs control” value ([4]; 25 mg kg^-1) of the same compound?
The value was “approximately 59%”.

What about the “Increase of apoptotic bodies in tumors vs control” value ([4]; 50 mg kg^-1) of the same compound?
The value was ~2 fold.

What about the “Expression of ATF4 and CHOP proteins in tumors” value [5] of the same compound?
The value was “significant increase”.

And the IC50 (MIA PaCa-2)?
Its IC50 is 26.6 µM.
